Test results reported in ChEMBL document CHEMBL5113406, “Structure-based discovery and development of novel O-GlcNAcase inhibitors for the treatment of Alzheimer's disease” (Eur J Med Chem, 2022).
Active and inactive are the calls of the source. No cut-off for these calls is given here.

Columns and labels:
[1] = target: T1, Hexosaminidase D (Homo sapiens) (UniProt Q8WVB3); experiment: Inhibition of human recombinant beta-hexosaminidase at 10 uM pretreated with compound followed by 4-nitrophenyl Nacetyl-beta-D-glucosaminide substrate addition by fluorometer
T1 sequence (whole entry): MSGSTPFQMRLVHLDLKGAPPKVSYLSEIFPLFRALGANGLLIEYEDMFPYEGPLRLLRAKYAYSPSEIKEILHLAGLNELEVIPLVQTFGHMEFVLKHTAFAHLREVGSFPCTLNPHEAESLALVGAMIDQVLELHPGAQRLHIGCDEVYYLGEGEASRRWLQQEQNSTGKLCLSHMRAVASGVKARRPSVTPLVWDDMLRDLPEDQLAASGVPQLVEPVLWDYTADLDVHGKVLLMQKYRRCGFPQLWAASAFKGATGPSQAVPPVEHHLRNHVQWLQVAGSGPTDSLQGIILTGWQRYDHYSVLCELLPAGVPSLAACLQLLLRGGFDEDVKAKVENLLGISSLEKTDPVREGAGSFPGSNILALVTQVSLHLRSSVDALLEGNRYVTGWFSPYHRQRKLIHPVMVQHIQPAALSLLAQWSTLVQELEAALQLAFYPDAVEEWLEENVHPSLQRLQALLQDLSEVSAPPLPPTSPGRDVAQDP

[2] = AUClast in ICR mouse brain at 50 mg/kg, ip after 24 hrs by LC-MS/MS analysis; assay type: ADME, organism-based; design: dose 50 mg/kg, time 24 hrs, route ip
Mus musculus [3] = experiment: Neuroprotective activity against amyloid beta (1 to 42)-induced cognitive impairement in ICR mouse assessed as […] spontaneous alteration at 50 mg/kg, ip for 3 days by Y-maze test; assay type: functional, organism-based; details: time 3.0 day
[4] = Cytotoxicity against mouse HT-22 cells assessed as cell viability at 10 uM after 18 hrs by MTT assay; assay type: toxicity, cell-based; details: read-out: Activity
[5] = Ratio of drug level in ICR mouse brain to plasma at 50 mg/kg, ip after 24 hrs by LC-MS/MS analysis; assay type: ADME, organism-based; details: brain and plasma, read-out: BPR
Brain [6] = experiment: Anti-alzheimer activity in mouse model assessed as decrease in amyloid beta level in brain at 50 mg/kg, ip for 3 days by ELISA relative to control; assay type: functional; details: 72 h, time 3 day
[7] = AUClast in ICR mouse plasma at 50 mg/kg, ip after 24 hrs by LC-MS/MS analysis; assay type: ADME, organism-based; design: dose 50 mg/kg, time 24 hrs, route ip
Mus musculus [8] = organism: Mus musculus; details: ICR, dose 50.0 mg/kg, route ip, time 3.0 day
Protein O-GlcNAcase = target: T2, Protein O-GlcNAcase (Homo sapiens, UniProt O60502); experiment: Inhibition of human recombinant OGA pretreated for 20 mins followed by 4-Methylumbelliferyl N-acetyl-(3-D-glucosaminide substrate addition by fluorometer
T2 sequence (O60502 whole entry): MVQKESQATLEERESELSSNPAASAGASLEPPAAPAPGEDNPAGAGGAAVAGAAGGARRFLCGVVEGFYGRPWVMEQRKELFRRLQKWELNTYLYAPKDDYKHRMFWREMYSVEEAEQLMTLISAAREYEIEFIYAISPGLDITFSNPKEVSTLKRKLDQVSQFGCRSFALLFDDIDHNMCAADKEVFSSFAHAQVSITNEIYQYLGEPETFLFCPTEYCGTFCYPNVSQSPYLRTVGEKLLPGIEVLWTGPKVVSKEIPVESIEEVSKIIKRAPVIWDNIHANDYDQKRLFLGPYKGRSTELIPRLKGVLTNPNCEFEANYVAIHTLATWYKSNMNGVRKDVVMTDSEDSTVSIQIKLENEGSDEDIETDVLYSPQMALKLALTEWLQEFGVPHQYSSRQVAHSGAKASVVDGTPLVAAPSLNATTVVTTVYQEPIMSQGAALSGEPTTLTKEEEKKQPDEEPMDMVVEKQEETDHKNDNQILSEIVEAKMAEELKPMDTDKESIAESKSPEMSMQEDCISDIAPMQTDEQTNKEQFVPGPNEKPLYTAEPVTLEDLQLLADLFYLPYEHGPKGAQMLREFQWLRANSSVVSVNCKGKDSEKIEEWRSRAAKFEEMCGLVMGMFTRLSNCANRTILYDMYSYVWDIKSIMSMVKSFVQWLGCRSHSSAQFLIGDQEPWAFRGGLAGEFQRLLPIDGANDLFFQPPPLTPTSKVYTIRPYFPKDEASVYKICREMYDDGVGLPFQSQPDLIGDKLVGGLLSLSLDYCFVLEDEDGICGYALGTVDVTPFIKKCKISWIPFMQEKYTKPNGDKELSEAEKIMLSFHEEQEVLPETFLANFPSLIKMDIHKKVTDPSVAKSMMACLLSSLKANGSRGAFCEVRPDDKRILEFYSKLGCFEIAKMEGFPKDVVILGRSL

Brain [9] = experiment: Anti-alzheimer activity in mouse model assessed as decrease in amyloid beta level in brain at 20 mg/kg, ip for 3 days by ELISA relative to control; assay type: functional; details: 72 h, time 3 day
[10] = AUCinfinity in ICR mouse plasma at 20 mg/kg, ip after 24 hrs by LC-MS/MS analysis; assay type: ADME, organism-based; design: time 24 hrs, dose 20 mg/kg, route ip
[11] = AUClast in ICR mouse plasma at 20 mg/kg, ip after 24 hrs by LC-MS/MS analysis; assay type: ADME, organism-based; design: dose 20 mg/kg, time 24 hrs, route ip
[12] = AUClast in ICR mouse brain at 20 mg/kg, ip after 24 hrs by LC-MS/MS analysis; assay type: ADME, organism-based; design: time 24 hrs, dose 20 mg/kg, route ip
[13] = AUCt in ICR mouse plasma at 20 mg/kg, ip after 24 hrs by LC-MS/MS analysis; assay type: ADME, organism-based; design: time 24 hrs, dose 20 mg/kg, route ip
[14] = Cmax in ICR mouse plasma at 20 mg/kg, ip after 24 hrs by LC-MS/MS analysis; assay type: ADME, organism-based; design: dose 20 mg/kg, time 24 hrs, route ip
Mus musculus [15] = experiment: Neuroprotective activity against amyloid beta (1 to 42)-induced cognitive impairement in ICR mouse assessed as spontaneous alteration at 20 mg/kg, ip for 3 days by Y-maze test; assay type: functional, organism-based; details: time 3.0 day
[16] = Half life in ICR mouse plasma at 20 mg/kg, ip after 24 hrs by LC-MS/MS analysis; assay type: ADME, organism-based
[17] = Ratio of drug level in ICR mouse brain to plasma at 20 mg/kg, ip after 24 hrs by LC-MS/MS analysis; assay type: ADME, organism-based; details: brain and plasma, read-out: BPR
Brain [18] = experiment: Anti-alzheimer activity in mouse model assessed as decrease in amyloid beta level in brain at 2 mg/kg, ip for 3 days by ELISA relative to control; assay type: functional; details: 72 h, time 3 day
Mus musculus [19] = experiment: In vivo inhibition of OGA in amyloid-beta-induced ICR mouse assessed as decrease in 4-MUF level at 2 to 20 mg/kg, ip for 3 days by fluorescence analysis; assay type: functional, organism-based; details: dose 2-20 mg/kg, time 3.0 day
[20] = Tmax in ICR mouse plasma at 20 mg/kg, ip after 24 hrs by LC-MS/MS analysis; assay type: ADME, organism-based

| Compound | inhibition [1] [%] | IC50 (Protein O-GlcNAcase) [nM] | viability at 18 h, 10 µM [4] [%] | also measured |
| --- | --- | --- | --- | --- |
| CCNC1=N[C@@H]2[C@@H](O)[C@H](O)[C@@H](CO)O[C@@H]2S1 | 91.6 | – | 95.9 | AUC(0-t) at 24 h [2]: 590 ng·h/mL; Activity (Mus musculus [3]): Active; Kp at 24 h [5]: 0.07; inhibition in vivo at 50 mg/kg (Brain [6]): 62.8%; AUC(0-t) at 24 h [7]: 10000 ng·h/mL; inhibition (Mus musculus [8]): Active |
| CC(=O)Nc1ncc(CN2CCN(CC(=O)Nc3ccccn3)CC2)s1 | – | 1400 | – | – |
| CC(=O)Nc1ncc(CN2CCC(C(=O)Nc3ccc(C)cc3)CC2)s1 | – | 300 | – | – |
| CC(=O)N[C@H]1/C(=N\OC(=O)Nc2ccccc2)O[C@H](CO)[C@@H](O)[C@@H]1O | 7.6 | – | 102 | – |
| CC(=O)Nc1ncc(CN2CCC(=CC(=O)NC3CCCCC3)CC2)s1 | – | 280 | – | – |
| CC(=O)Nc1ncc(CN2CCC(C(=O)Nc3ccc(F)cc3)CC2)s1 | – | 160 | – | – |
| CC(=O)Nc1ncc(CN2CCN(CC(=O)Nc3ccc(Cc4ccccc4)cc3)CC2)s1 | 101 | – | 140 | – |
| CC(=O)Nc1ncc(CN2CCN(CC(=O)NC3CCCCC3)CC2C)s1 (centres undefined) | 101 | – | 123 | – |
| CC(=O)Nc1ncc(CN2CCN(CC(=O)Nc3ccc(N4CCN(C(C)=O)CC4)cc3)CC2C)s1 (centres undefined) | 73.5 | – | 94.4 | – |

Now from value to compound, other results behind:

| inhibition [1] [%] | IC50 (Protein O-GlcNAcase) [nM] | Compound | viability at 18 h, 10 µM [4] [%] | also measured |
| --- | --- | --- | --- | --- |
| – | 230 | CC(=O)Nc1ncc(CN2CCCC(C(=O)NC3CCCCC3)C2)s1 (centres undefined) | – | – |
| 92.4 | – | CC(=O)Nc1ncc(CN2CCN(CC(=O)Nc3ccc(Cl)cc3)CC2C)s1 (centres undefined) | 111 | inhibition in vivo at 20 mg/kg (Brain [9]): 71.8%; AUC(0-inf) [10]: 5210 ng·h/mL; AUC(0-t) at 24 h [11]: 2960 ng·h/mL; AUC(0-t) at 24 h [12]: 590 ng·h/mL; AUC(0-t) at 24 h [13]: 4980 ng·h/mL; Cmax [14]: 3200 ng/mL; Activity (Mus musculus [15]): Active; half-life [16]: 91.8 min; Kp at 24 h [17]: 0.2; inhibition in vivo at 2 mg/kg (Brain [18]): 42%; inhibition (Mus musculus [19]): Active; Tmax [20]: 21.6 min |
| 92.5 | – | CC(=O)Nc1ncc(CN2CCCC(C(=O)Nc3ccc(F)cc3)C2)s1 (centres undefined) | 120 | – |
| – | 450 | CC(=O)Nc1ncc(CN2CCCC(C(=O)Nc3ccccc3)C2)s1 (centres undefined) | – | – |
| 103 | – | CC(=O)Nc1ncc(CN2CCN(CC(=O)Nc3ccccc3)CC2C)s1 (centres undefined) | 98.6 | – |
| 89.6 | – | COc1ccc(CNC(=O)C=C2CCN(Cc3cnc(NC(C)=O)s3)CC2)cc1 | 109 | – |
| 106 | – | CC(=O)Nc1ncc(CN2CCN(CC(=O)Nc3ccc(Cc4ccccc4)cc3)CC2C)s1 (centres undefined) | 136 | – |
